Laboratory results published in US12648984B2, “Long term treatment of psoriasis” (priority 2023, dated 2026).

Test system: extensive plaque psoriasis on the trunk
Assay: one patient case: once-daily topical application on the whole trunk
Type: in vivo, human
Conditions: same patient; for effect of earlier treatments on redness and psoriasis: regular treatment before the composition (UVA, then hydrocortisone, then Acitretine); for status upon cessation of earlier treatments: upon cessation of earlier treatment
Text: The composition has been evaluated in one patient case. A […], presenting extensive plaque psoriasis on the trunk for several years (illustration 1), was regularly treated with UVA, then hydrocortisone, then Acitretine.
They were provided with the composition according to the invention to apply once daily on the whole trunk. No concomitant treatment for psoriasis or else was used.
After 6 months, treatment with the composition was discontinued. Several months after discontinuation, the patient was questioned regarding the status of the disease.

| SMILES | effect of earlier treatments on redness and psoriasis | status upon cessation of earlier treatments |
| --- | --- | --- |
| C[C@]12CCC(=O)C=C1CC[C@@H]1[C@@H]2[C@@H](O)C[C@@]2(C)[C@H]1CC[C@]2(O)C(=O)CO [hydrocortisone] | reduced redness, but never the psoriasis itself | redness came back |
| COc1cc(C)c(/C=C/C(C)=C/C=C/C(C)=C/C(=O)O)c(C)c1C [Acitretine] | reduced redness, but never the psoriasis itself | redness came back |
